For the assay, the target named is Amine oxidase [flavin-containing] A (Rattus norvegicus) (UniProt P21396). The experiment in a line: Inhibition of MAO-A activity.
Sequence of Amine oxidase [flavin-containing] A (Rattus norvegicus) (P21396 whole entry, looked up): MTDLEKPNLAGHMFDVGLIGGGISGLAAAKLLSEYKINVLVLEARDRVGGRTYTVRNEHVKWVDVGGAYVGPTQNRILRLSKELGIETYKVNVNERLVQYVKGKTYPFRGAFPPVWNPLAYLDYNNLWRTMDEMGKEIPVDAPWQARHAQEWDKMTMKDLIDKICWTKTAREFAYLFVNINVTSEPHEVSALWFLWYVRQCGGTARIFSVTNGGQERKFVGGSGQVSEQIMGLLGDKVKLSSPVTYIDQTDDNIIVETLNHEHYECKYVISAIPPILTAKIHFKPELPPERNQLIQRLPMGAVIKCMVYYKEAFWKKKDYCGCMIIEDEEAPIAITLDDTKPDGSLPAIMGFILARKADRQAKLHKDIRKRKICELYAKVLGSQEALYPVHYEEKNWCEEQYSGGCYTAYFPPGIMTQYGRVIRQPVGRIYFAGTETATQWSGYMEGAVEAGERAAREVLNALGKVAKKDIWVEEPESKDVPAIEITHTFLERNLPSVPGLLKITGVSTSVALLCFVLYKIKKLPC

A word on the IC50: it is the point on the concentration scale where inhibition reaches its midpoint. The low end stands for inhibition by little substance, the high end for a need for much substance. Take `COc1cc(OC2CCCCC2=O)c2c(C)cc(=O)oc2c1` (stereo not given): the IC50 was more than 200 µM. The value for `COc1c(OC2CCCCC2=O)ccc2c(C)cc(=O)oc12` (stereo not given) was 11.1 µM; that for `COc1c(OCC(C)=O)ccc2cc(NC(C)=O)c(=O)oc12` was 6.43 µM; that for `Cc1cc(=O)oc2cc3oc4ccccc4c3cc12` was 7.24 µM.

In turn, `Cc1coc2cc3oc(=O)c(NC(=O)CN)cc3cc12` had an IC50 of 12.3 µM. For the molecule `Cc1cc(=O)oc2cc(OC3CCCCC3=O)ccc12` (stereo not given), inhibition was half-maximal at 43 µM (IC50). The molecule `CCN(CC)CCCOc1c2occc2cc2ccc(=O)oc12` returned an IC50 of more than 200 µM. The result for `Cc1cc(=O)oc2cc3oc4c(c3cc12)CCCC4` reads 65.2 µM; that for `COc1cc(OC2CCCCC2=O)cc2oc(=O)cc(C)c12` (stereo not given), 21.4 µM; that for `COc1c2oc(=O)c(N)cc2cc2c(C)coc12`, 21.7 µM. The value for `Cc1cc(=O)oc2cc(OC3CCCC3=O)ccc12` (stereo not given) was 0.04 µM; that for `NCCCOc1c2occc2cc2ccc(=O)oc12` was 2.51 µM; that for `COc1c(O)ccc2cc(N)c(=O)oc12` was more than 200 µM. The value for `Cc1cc(=O)oc2cc3oc4c(c3cc12)CCC4` was 11.9 µM; that for `COc1c2occc2cc2ccc(=O)oc12` [METHOXSALEN] was 85.1 µM.
